Laboratory results from patent publication US11617708B2, “Cosmetic composition capable of strengthening epidermal tight junctions for the prevention and/or treatment of atopic dermatitis” (NAOS INSTITUTE OF LIFE SCIENCE, priority 2020, dated 2023).

System: claudin-1
Assay: Expression of claudin-1 by in situ immunolabelling in an in vitro cell model of atopic dermatitis (calcium-differentiated keratinocytes inhibited by alarmins)
Type: cell-based, human
Description: • cell type: normal human epidermal keratinocytes (NHEK; reference: Bioalternatives K34 1), used at 3rd passage—culture conditions: 37° C., 5% CO2 • culture medium: Keratinocyte-SFM complemented with Epidermal Growth Factor (or EGF) at a concentration of 0.25 ng/mL, pituitary extract (PE) at a concentration of 25 μg/mL and gentamycin at a concentration of 25 μg/mL • assay medium used for this example: Keratinocyte-SFM complemented with gentamycin at a concentration of 25 μg/mL. […]
For each condition, the analysis was carried out from 30 image quantifications (n=30) except for the control conditions produced from 60 image quantifications (n=60). A first evaluation of the results was carried out by taking all of the quantifications into account, then a second solely with the results with replicated cultures, i.e. with 3 replications (n=3), except for the control conditions which were carried out with 6 replications (n=6). […]
Labelling was quantified by measuring the intensity of fluorescence of the proteins with respect to the total number of cells identified by staining with bis-benzimide (integration of digital data by the Developer Toolbox 1.5 software, GE Health Care).
The intergroup comparisons were carried out with the aid of the bilateral unpaired Student t-assay. […] However, for n<5, the calculated data were provided by way of indication only. […]

Row | SMILES | expression of claudin-1 after differentiation with CaCl2 (NHEK, CaCl2 0.75 mM, without alarmins, versus not stimulated/not differentiated control) | effect on the expression of claudin-1 (% with respect to T+, inhibited control = 100%) (NHEK differentiated with CaCl2 0.75 mM, compounds 1 h before alarmins (histamine 50 μM, IL-33 100 ng/mL, IL-1β 100 ng/mL), 72 h, arginine 0.02-0.2%, glycosylceramides 0.0003-0.003%, FIG. 1)
1 | [Ca+2].[Cl-].[Cl-] [CaCl2] | induced an increase in the expression of the analysed tight junctions protein (claudin-1) | 
2 | N=C(N)NCCC[C@H](N)C(=O)O [arginine] |  | significantly reversed the inhibiting effect of the mixture of alarmins on the expression of claudin-1
